Data on 19 compounds can be found in patent publication US20230234917A1, “ASPARAGINE DERIVATIVES AND METHODS OF USING SAME” (priority 2020, published 2023).

The target in one test is Full-length WT ClbP (Escherichia coli, UniProt Q0P7K6). Briefly: ClbP molecular (purified protein) enzymatic inhibition assay, fluorogenic substrate. Format: biochemical, E. coli.
Test [1] has as its target T1, ClbP (Escherichia coli, UniProt Q0P7K6). Briefly: ClbP cell lysate activity (inhibition) assay, fluorogenic substrate. Format: biochemical. The conditions noted are these: ClbP Lysate Inhibition Assay: IC50, E. coli ClbP+ lysozyme-EDTA lysates, 5 μM fluorogenic substrate, inhibitor 0-300 μM, 37° C., singlicate. The gist of the method:
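E. coli ClbP+ overnight culture lysed with lysozyme-EDTA (30 min, 37 °C); lysate (fivefold concentrated vs culture) mixed with inhibitor (0–300 μM, 4% DMSO) and 5 μM fluorogenic substrate. Fluorescence (ex 360/em 460 nm) read at 37 °C; 0–20 min rates normalized to no-inhibitor, three-parameter IC50 fit, singlicate.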

The target in test [2] is T1, ClbP. Briefly: ClbP whole cell activity (inhibition) assay, fluorogenic substrate. The class given is cell-based, E. coli. The gist of the method:
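E. coli ClbP+ overnight culture washed and concentrated fivefold in PBS, mixed with inhibitor (0–300 μM, 4% DMSO) and 5 μM fluorogenic substrate at 37 °C. Fluorescence (ex 360/em 460 nm) read every 2 min for 46 min. Rates from 10–30 min normalized to no inhibitor and fit to a three-parameter IC50.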

`CCCCCCCC(=O)N[C@H](CC(N)=O)[C@@H](O)CCCc1ccccc1` [Compound CXCI]: the IC50 was 100 to 300 µM against Full-length WT ClbP, 100 to 300 µM on ClbP [1] and less than 100 µM against ClbP [2].

For `NC(=O)C[C@@H](NC(=O)CCCC1CCCC1)C(=O)NCCc1ccc(O)cc1` [Compound CCLXI], the IC50 at Full-length WT ClbP, against ClbP [1] and on ClbP [2] was less than 100 µM in each case.

Turning to `NC(=O)C[C@@H](NC(=O)CCCC1CCCCCC1)C(=O)NCCc1ccc(O)cc1` [Compound CCXLI], the IC50 on Full-length WT ClbP, against ClbP [1] and against ClbP [2] was less than 100 µM each time.

With `CCCCCCCC(=O)N[C@H](CC(N)=O)C(=O)NC[C@@H](C)c1ccccc1` [Compound CCCII], the IC50 against Full-length WT ClbP, against ClbP [1] and against ClbP [2] was less than 100 µM in each case.

On to `CCCCCCCC(=O)N[C@H](CC(N)=O)C(=O)NCCc1cccc(O)c1` [Compound CCXXIII], for which the IC50 against Full-length WT ClbP, on ClbP [1] and against ClbP [2] was less than 100 µM throughout.

On to `CCCCCCCC(=O)N[C@H](CC(N)=O)C(=O)NCCOc1ccccc1` [Compound CCLIV], for which the IC50 against Full-length WT ClbP, at ClbP [1] and against ClbP [2] was less than 100 µM throughout.

Turning to `CN(CCCCCC(=O)N[C@H](CC(N)=O)C(=O)NCCc1ccc(O)cc1)Cc1ccccc1` [Compound CCXCI], the half-maximal inhibitory concentration (IC50) against Full-length WT ClbP, against ClbP [1] and against ClbP [2] was less than 100 µM in each case.

In the case of `CCCCCCCC(=O)N[C@H](CC(N)=O)C(=O)NCCc1ccc(C(=O)OC)cc1` [Compound CXCVII], the IC50 on Full-length WT ClbP, at ClbP [1] and at ClbP [2] was less than 100 µM in each case.

As to `CCCCCCCC(=O)N[C@H](CC(N)=O)C(=O)NCCc1ccc(O)cc1O` [Compound CCXXV], the IC50 against Full-length WT ClbP, on ClbP [1] and against ClbP [2] was less than 100 µM each time.

On to `CCCCCCCC(=O)N[C@H](CC(N)=O)C(=O)NCCN1CCN(C)CC1` [Compound CXC], for which the IC50 against Full-length WT ClbP is 100 to 300 µM; against ClbP [1], more than 300 µM; against ClbP [2] it was more than 300 µM.

Turning to `NC(=O)C[C@@H](NC(=O)CCC1CCCCC1)C(=O)NCCc1ccc(O)cc1` [Compound CCXLII], the IC50 against Full-length WT ClbP, against ClbP [1] and against ClbP [2] was less than 100 µM throughout.

Consider `CCCCCCCC(=O)N[C@H](CC(N)=O)C(=O)c1nccn1Cc1ccccc1` [Compound CCLVIII], for which the IC50 against Full-length WT ClbP is 100 to 300 µM; on ClbP [1] it was more than 300 µM; against ClbP [2], more than 300 µM.

With `NC(=O)C[C@@H](NC(=O)/C=C/CC1CCCC1)C(=O)NCCc1ccc(O)cc1` [Compound CCLX], the IC50 against Full-length WT ClbP, against ClbP [1] and against ClbP [2] was less than 100 µM each time.

As for `CCCCCCCC(=O)N[C@H](CC(N)=O)c1nnc(CCc2ccccc2)o1` [Compound CCXI], the IC50 is 100 to 300 µM on Full-length WT ClbP, more than 300 µM against ClbP [1] and more than 300 µM at ClbP [2].

Regarding `CCCCCCCC(=O)N[C@H](CC(N)=O)C(=O)NCCc1ccc(O)c(O)c1` [Compound CCXXVI], the 50% inhibitory concentration (IC50) against Full-length WT ClbP, at ClbP [1] and against ClbP [2] was less than 100 µM each time.

In the case of `CCCCCCCC(=O)N[C@H](CC(N)=O)C(=O)NCCc1ccco1` [Compound CCXXXI], the IC50 on Full-length WT ClbP, against ClbP [1] and on ClbP [2] was less than 100 µM in each case.

With `CCCCCCCC(=O)N[C@H](CC(N)=O)C(=O)c1nccn1C` [Compound CCLVII], the IC50 at Full-length WT ClbP is 100 to 300 µM; against ClbP [1], more than 300 µM; against ClbP [2] it was more than 300 µM.

Regarding `NC(=O)C[C@@H](NC(=O)CCCCC(F)(F)F)C(=O)NCCc1ccc(O)cc1` [Compound CCXCII], the 50% inhibitory concentration (IC50) against Full-length WT ClbP, against ClbP [1] and on ClbP [2] was less than 100 µM each time.

Take `NC(=O)C[C@@H](NC(=O)CCCC1CCCC1)C(=O)NCCc1ccccc1` [Compound CCLXIII]: the IC50 against Full-length WT ClbP, at ClbP [1] and against ClbP [2] was less than 100 µM throughout.

One may read the IC50 as the concentration needed to halve the response being measured.
